# According to publication PMC12040969, “Design, synthesis, in silico studies, and apoptotic antiproliferative activity of novel thiazole-2-acetamide derivatives as tubulin polymerization inhibitors” (Frontiers in Chemistry, 2025):
# How the values were obtained:
# [1] = Cell viability assay (MTT), normal cells; type: cell-based; conditions: human, MCF-10A normal mammary gland epithelial cells, four-day incubation
# Description: The impact of novel compounds 10a-o and 13a-e on cell viability was examined using the MCF-10A (human mammary gland epithelial) normal cell line. The MTT test was employed to assess the cell viability of the novel compounds after a four-day incubation with MCF-10A cells ([El-Sherief et al., 2019]; [Ramadan et al., 2020]).
# The effects of compounds 10a-o and 13a-e on cell viability were assessed using the human mammary gland epithelial normal cell line (MCF-10A). The MTT assay assessed the cell viability of compounds 10a-o and 13a-e following a four-day incubation with MCF-10A cells ([El-Sherief et al., 2019]; [Ramadan et al., 2020]). Check Supplementary Appendix A for additional information.
# 4.2. Biological evaluation
# 4.2.1 Cell Viability assay (MTT assay)
# MTT assay was performed to investigate the effect of the synthesized compounds on mammary epithelial cells (MCF-10A). The cells were propagated in medium consisting of Ham's F-12 medium/ Dulbecco's modified Eagle's medium (DMEM) (1:1) supplemented with 10% foetal calf serum, 2 mM glutamine, insulin (10 μg/mL), hydrocortisone (500 ng/mL) and epidermal growth factor (20 ng/mL). Trypsin ethylenediamine tetra acetic acid (EDTA) was used to passage the cells after every 2-3 days. 96-well flat-bottomed cell culture plates were used to seed the cells at a density of 10^4 cells mL-1. The medium was aspirated from all the wells of culture plates after 24 h followed by the addition of synthesized compounds (in 200 μL medium to yield a final concentration of 0.1% (v/v) dimethyl sulfoxide) into individual wells of the plates.
# Four wells were designated to a single compound. The plates were allowed to incubate at 37°C for 96 h. Afterwards, the medium was aspirated and 3-[4,5-dimethylthiazol-2-yl]-2,5-diphenyltetrazolium bromide (MTT) (0.4 mg/mL) in medium was added to each well and subsequently incubated for 3 h. The medium was aspirated and 150 μL dimethyl sulfoxide (DMSO) was added to each well. The plates were vortexed followed by the measurement of absorbance at 540 nm on a microplate reader. The results were presented as inhibition (%) of proliferation in contrast to controls comprising 0.1%
# [2] = system: tubulin; assay: Tubulin polymerization inhibition assay (Cytoskeleton kit);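 as to all read-outs here: Cell-free tubulin polymerization read by fluorescent reporter enhancement over a 30 min reaction, with the compound-free kit control taken as 100% activity and inhibition relative to it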; conditions: for Tub. enzyme inhibition assay %inhibition / Tub %inh: 30 min; for Tub. enzyme inhibition assay %inhibition: codes 522-537 run; for Tub. enzyme inhibition assay K. Activity: control = 120, codes 522-537 run; for IC50: read-out: Tubulin inhibition IC50 ± SEM, triplicate for each tested concentration; for Tub. (IC50) IC50±SD: supplement raw data, lab codes; for Tub %inh: YB-EGY run; for Tub K.Activity: EC = 120, YB-EGY run
SMILES,"viability at 96 h, 50 µM [1]",Tub. enzyme inhibition assay %inhibition ([2]; conc 0.01 (unit not given)),Tub. enzyme inhibition assay K. Activity ([2]; conc 0.01 (unit not given)),Tub. enzyme inhibition assay %inhibition ([2]; conc 0.1 (unit not given)),Tub. enzyme inhibition assay K. Activity ([2]; conc 0.1 (unit not given)),Tub. enzyme inhibition assay %inhibition ([2]; conc 1 (unit not given)),Tub. enzyme inhibition assay K. Activity ([2]; conc 1 (unit not given)),Tub. enzyme inhibition assay %inhibition ([2]; conc 10 (unit not given)),Tub. enzyme inhibition assay K. Activity ([2]; conc 10 (unit not given)),Tub. enzyme inhibition assay %inhibition ([2]; conc 100 (unit not given)),Tub. enzyme inhibition assay K. Activity ([2]; conc 100 (unit not given)),IC50 [2],Tub. (IC50) IC50±SD [2],Tub %inh ([2]; conc 0.1 (unit not given)),Tub K.Activity ([2]; conc 0.1 (unit not given)),Tub %inh ([2]; conc 1 (unit not given)),Tub K.Activity ([2]; conc 1 (unit not given)),Tub %inh ([2]; conc 10 (unit not given)),Tub K.Activity ([2]; conc 10 (unit not given)),Tub %inh ([2]; conc 50 (unit not given)),other results
"COc1ccc(/C=C/C(=O)c2sc(SCC(=O)Nc3nc(-c4ccccc4)cs3)nc2C)cc1 [Compound 10e, (E)-2-((5-(3-(4-methoxyphenyl)acryloyl)-4-methylthiazol-2-yl)thio)-N-(4-phenylthiazol-2-yl)acetamide]",92%,2.57%,116.92,9.6%,108.49,20.4%,95.5,46%,64.791,83.3%,19.996,15.3 ± 0.49 µM,7.77 ± 0.25 µg/mL,,,,,,,,
"COc1ccc(/C=C/C(=O)c2sc(SCC(=O)Nc3nccs3)nc2C)cc1 [Compound 13e, (E)-2-((5-(3-(4-methoxyphenyl)acryloyl)-4-methylthiazol-2-yl)thio)-N-(thiazol-2-yl)acetamide]",91%,,,,,,,,,,,39.9 ± 1.22 µM,,7.07%,111.52,16.4%,100.36,26.3%,88.403,41.7%,Tub K.Activity ([2]; conc 50 (unit not given)): 69.965; Tub %inh ([2]; conc 100 (unit not given)): 75.9%; Tub K.Activity ([2]; conc 100 (unit not given)): 28.968
"COc1ccc(/C=C/C(=O)c2sc(SCC(=O)Nc3nc(-c4ccc(Cl)cc4)cs3)nc2C)cc1 [Compound 10j, (E)-N-(4-(4-chlorophenyl)thiazol-2-yl)-2-((5-(3-(4-methoxyphenyl)acryloyl)-4-methylthiazol-2-yl)thio)acetamide]",93%,2.01%,117.59,7.08%,111.51,22.6%,92.923,45.7%,65.175,75.5%,29.401,20.6 ± 0.75 µM,11.14 ± 0.41 µg/mL,,,,,,,,
"Cc1nc(SCC(=O)Nc2nc(-c3ccccc3)cs2)sc1C(=O)/C=C/c1ccc(F)cc1 [Compound 10c, (E)-2-((5-(3-(4-fluorophenyl)acryloyl)-4-methylthiazol-2-yl)thio)-N-(4-phenylthiazol-2-yl)acetamide]",89%,,,,,,,,,,,22.5 ± 0.69 µM,,4.47%,114.64,12.4%,105.09,25.6%,89.245,52.5%,Tub K.Activity ([2]; conc 50 (unit not given)): 56.999; Tub %inh ([2]; conc 100 (unit not given)): 83%; Tub K.Activity ([2]; conc 100 (unit not given)): 20.424
"Cc1nc(SCC(=O)Nc2nccs2)sc1C(=O)/C=C/c1ccccc1 [Compound 13a, (E)-2-((5-cinnamoyl-4-methylthiazol-2-yl)thio)-N-(thiazol-2-yl)acetamide]",89%,,,,,,,,,,,15.8 ± 0.48 µM,,5.68%,113.18,16.6%,100.09,32.4%,81.141,62.4%,Tub K.Activity ([2]; conc 50 (unit not given)): 45.076; Tub %inh ([2]; conc 100 (unit not given)): 78.7%; Tub K.Activity ([2]; conc 100 (unit not given)): 25.608
"Cc1ccc(-c2csc(NC(=O)CSc3nc(C)c(C(=O)/C=C/c4ccc(Cl)cc4)s3)n2)cc1 [Compound 10l, (E)-2-((5-(3-(4-chlorophenyl)acryloyl)-4-methylthiazol-2-yl)thio)-N-(4-(p-tolyl)thiazol-2-yl)acetamide]",89%,1.85%,117.78,10.9%,106.95,24.6%,90.43,49.3%,60.835,79.5%,24.585,13.9 ± 0.51 µM,7.331 ± 0.27 µg/mL,,,,,,,,
"Cc1ccc(/C=C/C(=O)c2sc(SCC(=O)Nc3nc(-c4ccc(C)cc4)cs3)nc2C)cc1 [Compound 10n, (E)-2-((4-methyl-5-(3-(p-tolyl)acryloyl)thiazol-2-yl)thio)-N-(4-(p-tolyl)thiazol-2-yl)acetamide]",89%,2.01%,117.59,8.94%,109.27,26.1%,88.73,49.9%,60.139,76.7%,27.908,16 ± 0.59 µM,8.075 ± 0.3 µg/mL,,,,,,,,
"Cc1nc(SCC(=O)Nc2nc(-c3ccccc3)cs2)sc1C(=O)/C=C/c1ccc(Cl)cc1 [Compound 10b, (E)-2-((5-(3-(4-chlorophenyl)acryloyl)-4-methylthiazol-2-yl)thio)-N-(4-phenylthiazol-2-yl)acetamide]",91%,,,,,,,,,,,8.75 ± 0.27 µM,,5.79%,113.05,23.9%,91.287,41.4%,70.334,64.5%,Tub K.Activity ([2]; conc 50 (unit not given)): 42.629; Tub %inh ([2]; conc 100 (unit not given)): 88.7%; Tub K.Activity ([2]; conc 100 (unit not given)): 13.577
"Cc1nc(SCC(=O)Nc2nc(-c3ccc(Cl)cc3)cs2)sc1C(=O)/C=C/c1ccc(Cl)cc1 [Compound 10g, (E)-2-((5-(3-(4-chlorophenyl)acryloyl)-4-methylthiazol-2-yl)thio)-N-(4-(4-chlorophenyl)thiazol-2-yl)acetamide]",89%,0.65%,119.22,5.24%,113.71,15.3%,101.63,32.3%,81.206,70.5%,35.432,59.4 ± 3.78 µM,32.45 ± 2.07 µg/mL,,,,,,,,
"Cc1ccc(-c2csc(NC(=O)CSc3nc(C)c(C(=O)/C=C/c4ccccc4)s3)n2)cc1 [Compound 10k, (E)-2-((5-cinnamoyl-4-methylthiazol-2-yl)thio)-N-(4-(p-tolyl)thiazol-2-yl)acetamide]",90%,0.28%,119.66,5.09%,113.89,16.5%,100.23,36.5%,76.175,71.9%,33.707,47.8 ± 1.74 µM,23.48 ± 0.86 µg/mL,,,,,,,,
